In publication PMC12722964, “Immunogenicity risk assessment of peptide-related impurities identified in generic teriparatide products” (Frontiers in Immunology, 2025):
One block for each substance: values may come before it. Ends that are not written are not given here.

Tests used:
HLA-DRB1*0101 = biological target: T1, HLA-DRB1*0101 (Homo sapiens, UniProt P01903+P01911, A100R/D57E/F55L/F60I/F76Y/I96L/L162R/M171V/P40L/Q125E/R42F/V115G/Y59C); experiment: Class II HLA binding assay; conditions: Figure 6; shortened peptides of Table 3; category by IC50; read-out: HLA binding affinity category, DRB1*0101
T1 construct: incubated overnight to equilibrium with a soluble HLA-DR molecule; purchased Benaroya Research Institute, Seattle, WA, USA
Method: (§1) Class II HLA binding assays used in these studies measure the binding affinity of a target peptide to HLA-DRB1*0101, HLA-DRB1*0301, HLA-DRB1*0401, HLA-DRB1*0701, HLA-DRB1*0901, HLA-DRB1*1101, HLA-DRB1*1301, and HLA-DRB1*1501. The HLA binding assay was originally described by Steere et al. ([21]) and adapted by EpiVax ([22], [23]). Briefly, unlabeled test peptides were incubated overnight to equilibrium with a soluble HLA-DR molecule (Benaroya Research Institute, Seattle, WA, USA) and a biotinylated, allele-specific competitor peptide of known binding affinity. The binding reaction was then neutralized with a buffered pH change, and the peptide-HLA complexes were transferred to a 96-well plate coated with a pan-HLA-DR antibody, clone L243 (BioLegend, San Diego, CA, United States), and incubated overnight. The following day, plates were resolved with the addition of europium-labeled streptavidin (Perkin-Elmer, Waltham, MA, USA). An indirect measure of binding was determined by time-resolved fluorescence. Each peptide was evaluated in triplicate over a range of seven concentrations. The percent inhibition values for each experimental peptide across this concentration range were used to calculate an IC50, the concentration at which the peptide inhibits 50% of the labeled competitor peptide.
(§2) Following the in silico analysis, epitope binding predictions by EpiMatrix were evaluated in vitro by measuring the binding affinity of each impurity peptide relative to the corresponding N- or C-terminal portion of the TPT API, in vitro. The class II HLA-DRB1 binding assay was adapted from an assay originally described by Steere et al. ([21]) that provides an indirect measurement of peptide-HLA affinity. Class II HLA binding peptides typically range in length from 12–20 amino acids; however, the core HLA binding region is nine amino acids. The class II HLA binding groove is open-ended, and the additional flanking residues on either end of the core binding motif stabilize the peptide: HLA binding interaction. Targeted binding motifs were properly centered within the shorter length peptides synthesized for these binding studies (Table 3).

HLA-DRB1*0301 = biological target: T2, HLA-DRB1*0301 (Homo sapiens, UniProt P01903+P01911, A100K/A102G/A103R/A169T/F55Y/I96L/K41T/L162R/M171V/P40S/Q125H/Q178H/Q39Y/R42S/S66N/T106N/T262R/W38E/Y61H); experiment: Class II HLA binding assay; conditions: Figure 6; shortened peptides of Table 3; category by IC50; read-out: HLA binding affinity category, DRB1*0301
T2 construct: incubated overnight to equilibrium with a soluble HLA-DR molecule; purchased Benaroya Research Institute, Seattle, WA, USA
Method: as §1, §2

HLA-DRB1*0401 = biological target: T3, HLA-DRB1*0401 (Homo sapiens, UniProt P01903+P01911, A100K/A169T/F76Y/I96L/K127E/L162R/M171V/N62H/P40V/Q125Y/R42H/S133A/S149N/S66Y/V115G/V209L/W38E); experiment: Class II HLA binding assay; conditions: Figure 6; shortened peptides of Table 3; category by IC50; read-out: HLA binding affinity category, DRB1*0401
T3 construct: incubated overnight to equilibrium with a soluble HLA-DR molecule; purchased Benaroya Research Institute, Seattle, WA, USA
Method: as §1, §2

HLA-DRB1*0701 = HLA-DRB1*0701 (Homo sapiens, UniProt P01903+P01911, A100R/A102G/A103Q/D57E/D86V/E43K/F76Y/K127E/L162R/M171V/P40G/Q125H/Q99D/R33Q/R42Y/R54Q/S133A/S66F/T210M/V115G/Y107V/Y59L/Y89S); experiment: Class II HLA binding assay; conditions: Figure 6; shortened peptides of Table 3; category by IC50; read-out: HLA binding affinity category, DRB1*0701
Method: as §1, §2

HLA-DRB1*0901 = HLA-DRB1*0901 (Homo sapiens, UniProt P01903+P01911, A100R/A103E/D57H/D86V/F55Y/F60I/F76Y/I96F/K127E/L162R/M171V/P40D/Q125H/Q99R/R33Q/R42F/S133A/S66N/T210M/V115G/W38K/Y107V/Y59G/Y89S); experiment: Class II HLA binding assay; conditions: Figure 6; shortened peptides of Table 3; category by IC50; read-out: HLA binding affinity category, DRB1*0901
Method: as §1, §2

HLA-DRB1*1101 = HLA-DRB1*1101 (Homo sapiens, UniProt P01903+P01911, A100R/A169T/A87E/I96F/K41T/L162R/M171V/P40S/Q125H/Q178H/Q39Y/Q99D/R42S/S66Y/T262R/V115G/W38E); experiment: Class II HLA binding assay; conditions: Figure 6; shortened peptides of Table 3; category by IC50; read-out: HLA binding affinity category, DRB1*1101
Chain of HLA-DRB1*1101 (P01903 26-254 limits assumed, other chains not shown): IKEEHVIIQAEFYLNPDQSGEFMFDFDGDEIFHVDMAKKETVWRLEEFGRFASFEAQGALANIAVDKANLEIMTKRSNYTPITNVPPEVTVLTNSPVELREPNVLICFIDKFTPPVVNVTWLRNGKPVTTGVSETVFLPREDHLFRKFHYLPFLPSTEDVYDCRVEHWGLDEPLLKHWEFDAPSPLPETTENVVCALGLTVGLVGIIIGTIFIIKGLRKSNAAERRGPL
Method: as §1, §2

HLA-DRB1*1301 = HLA-DRB1*1301 (Homo sapiens, UniProt P01903+P01911, A100E/A169T/K41T/L162R/M171V/P40S/Q125H/Q178H/Q39Y/Q99D/R42S/S66N/T262R/W38E/Y61H); experiment: Class II HLA binding assay; conditions: Figure 6; shortened peptides of Table 3; category by IC50; read-out: HLA binding affinity category, DRB1*1301
Method: as §1, §2

HLA-DRB1*1501 = biological target: T4, HLA-DRB1*1501 (Homo sapiens, UniProt P01903+P01911); experiment: Class II HLA binding assay; conditions: Figure 6; shortened peptides of Table 3; category by IC50; read-out: HLA binding affinity category, DRB1*1501
T4 construct: incubated overnight to equilibrium with a soluble HLA-DR molecule; purchased Benaroya Research Institute, Seattle, WA, USA
Method: as §1, §2

[1] = tested on: eight class II Supertype Alleles (HLA-DRB1); experiment: Class II HLA binding assay, summary over the panel of eight alleles; parameters: species or system human
Method: as §1
as §2, with “Targeted binding motifs were properly centered within the shorter length peptides synthesized for these binding studies (Table 3).” left out

[2] = Overall risk based on in silico and in vitro results; conditions: EpiMatrix and JanusMatrix scores compared with naïve donor T-cell assay
Excerpt: Table 4 Overall risk based on in silico and in vitro results. | column: Overall risk

[3] = human, in vivo; cited from earlier work
Excerpt: Teriparatide (TPT), sold under the brand name Forteo®, is a 34-amino acid peptide drug produced by recombinant DNA (rDNA) technology. Synthetic peptide versions of the drug have recently been approved for the generic drug market. TPT consists of the biologically active N-terminal 34 amino acids of human parathyroid hormone (PTH) (Figure 1) and is approved in the USA for the treatment of postmenopausal osteoporosis in patients at high risk of bone fracture. Since TPT’s sequence is identical to that of the N-terminus of PTH, the development of antibodies that cross-react with the endogenous hor ... || TPT has a history of having low immunogenicity in the clinic, with only 2.8% of treated patients developing antidrug antibodies after 12 months of treatment. Consistent with this, TPT induced IFN-γ production by responding T cells in fewer than 20% of donor cell preparations ex vivo. However, because different impurities can arise from different methods of peptide synthesis and production, it is important to understand whether any peptide-related impurities could contribute to the immunogenicity risk of generic TPT. Here, we performed an immunogenicity risk assessment for several peptide-relat ...

B cells = tested on: B cells; parameters: method as in 2 sources, one per row (each row's own in cited_ref): ref Howard et al. ([38]) ||| ref [37] = [37]; 37 Howard KE . ( 2025 ). Alternative models: from humanized mice to microphysiological systems and beyond , in: Scientific and Regulatory Considerations for Assessment of Immunogenicity Risk for Gener; conditions: cited from earlier work

IC50 (HLA-DRB1*0101): > 100 µM | IC50 (HLA-DRB1*0301): > 100 µM | IC50 (HLA-DRB1*0401): > 100 µM | IC50 (HLA-DRB1*0701): > 100 µM | IC50 (HLA-DRB1*0901): > 100 µM | IC50 (HLA-DRB1*1101): > 100 µM | IC50 (HLA-DRB1*1301): > 100 µM | IC50 (HLA-DRB1*1501): > 100 µM
Substance: MERVEWLRK(Ac)KLQDVHNF [LYS-AC26_TPT (18-34)]

IC50 (HLA-DRB1*0101): > 100 µM | IC50 (HLA-DRB1*0301): > 100 µM | IC50 (HLA-DRB1*0401): > 100 µM | IC50 (HLA-DRB1*0701): > 100 µM | IC50 (HLA-DRB1*0901): > 100 µM | IC50 (HLA-DRB1*1101): 0.1 to 1 µM | IC50 (HLA-DRB1*1301): 1 to 10 µM | IC50 (HLA-DRB1*1501): ≥ 100 µM | number of the eight class II Supertype Alleles bound ([1]; of eight alleles evaluated, negligible to high affinity counted as bound): three
Substance: MERVEWLRKKLQDVHNF-OH [API_TPT (18-34) C-term]

IC50 (HLA-DRB1*0101): > 100 µM | IC50 (HLA-DRB1*0301): > 100 µM | IC50 (HLA-DRB1*0401): > 100 µM | IC50 (HLA-DRB1*0701): > 100 µM | IC50 (HLA-DRB1*0901): > 100 µM | IC50 (HLA-DRB1*1101): 1 to 10 µM | IC50 (HLA-DRB1*1301): 0.1 to 1 µM | IC50 (HLA-DRB1*1501): ≥ 100 µM
Substance: MERVEWLRKKQDVHNF [DES-LEU28_TPT (18-33)]

classification in the HLA binding assays ([1]; shorter peptide with the modification centered): nonbinder | Overall risk [2]: High
Substance: SVSEIQLMHNLGKHLNSMERVEWLR(K-Ac)KLQDVHNF [LYS-AC26_TERIPARATIDE, observed teriparatide impurity, Lys26 acetylated]

Overall risk [2]: Low
Substance: SVSEIQLMHNLGKHLNSMERVEWLRKKLQDVHNF [TERIPARATIDE, teriparatide]
treated patients developing antidrug antibodies (ADA) [3]: 2.8% | immunogenicity (as measured by activation of B cells) (B cells; at multiple doses, in contrast to SCT, ref Howard et al. ([38])): lower immunogenicity

Overall risk [2]: Low
Substance: SVSEIQLMHNLGKHLNSMERVEWLRKK–QDVHNF [DES-LEU28_TERIPARATIDE, observed teriparatide impurity, deletion of Leu28]

Overall risk [2]: High
Substance: SVSEIQLMHNLGK–LNSMERVEWLRKKLQDVHNF [DES-HIS14_TERIPARATIDE, observed teriparatide impurity, deletion of His14]

Overall risk [2]: High
Substance: SVSEIQLMHNLG–HLNSMERVEWLRKKLQDVHNF [DES-LYS13_TERIPARATIDE, observed teriparatide impurity, deletion of Lys13]

Substance: SVSEIQLMHNLLGKHLNSMERVEWLRKKLQDVHNF [ENDO-LEU11_TERIPARATIDE, theoretical teriparatide impurity predicted by WhIM, duplication of Leu11]
Overall risk [2]: High

Overall risk [2]: High
Substance: SVSEIQLMHNL–KHLNSMERVEWLRKKLQDVHNF [DES-GLY12_TERIPARATIDE, theoretical teriparatide impurity predicted by WhIM, deletion of Gly12]

Overall risk [2]: High
Substance: SVSEIQLMHN–GKHLNSMERVEWLRKKLQDVHNF [DES-LEU11_TERIPARATIDE, observed teriparatide impurity, deletion of Leu11]

Overall risk [2]: High
Substance: SVSEIQLM–NLGKHLNSMERVEWLRKKLQDVHNF [DES-HIS9_TERIPARATIDE, observed teriparatide impurity, deletion of His9]

binding affinity compared to the corresponding region of the API ([1]; impurity peptides alongside N-term or C-term TPT API peptide): decreased or equivalent binding affinity | Overall risk [2]: Medium
Substance: SVSEIQ–MHNLGKHLNSMERVEWLRKKLQDVHNF [DES-LEU7_TERIPARATIDE, observed teriparatide impurity, deletion of Leu7]

Substance: salmon calcitonin [SCT]
long-term memory B cells and plasma cells (B cells; SCT-treated mice compared to TPT, ref [37]): Increased numbers
